According to patent publication US7026281B1, “Antagonistic analogs of GH-RH inhibiting IGF-I and -II” (The Administrators of the Tulane Educational Fund, priority 1998, dated 2006):
Square brackets hold non-standard residues; d marks the D form. Peptide text beside a SMILES is read from it. * marks the point of attachment. Phe(4-Cl) = N[C@@H](Cc1ccc(Cl)cc1)C(=O)O; hArg = N=C(N)NCCCC[C@H](N)C(=O)O; Nle = CCCC[C@H](N)C(=O)O; Abu = CC[C@H](N)C(=O)O; PhAc = O=C(Cc1ccccc1)*

Assays:
[1] = system: hGH-RH(1–29)NH2 induced GH release; experiment: Inhibition of GH release in superfused rat pituitary system; format: cell-based; conditions: for Inhibition of GH release (%) 30 min / Inhibition of GH release (%) 60 min / Inhibition of GH release (%) 90 min / Inhibition of GH release (%) 120 min / Inhibition of GH release (%) 0 min: antagonist 30 nM; for Inhibition of GH release (%) 30 min: 1 nM hGH-RH(1–29)NH2 30 min later; for Inhibition of GH release (%) 60 min: 1 nM hGH-RH(1–29)NH2 60 min later; for Inhibition of GH release (%) 90 min: 1 nM hGH-RH(1–29)NH2 90 min later; for Inhibition of GH release (%) 120 min: 1 nM hGH-RH(1–29)NH2 120 min later; for Inhibition of GH release (%) 0 min: 1 nM hGH-RH(1–29)NH2 at 0 min
Method in brief: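 Superfused rat pituitary cells preincubated 9 min with peptide, then challenged for 3 min with 1 nM hGH-RH(1–29)NH2 at 0, 30, 60, 90 and 120 min. Rat GH measured by double-antibody RIA; net integral GH responses expressed as percent of the original 1 nM GH-RH-induced response.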

[2] = target: T1, rat pituitary GH-RH receptors (Rattus norvegicus, UniProt Q02644); experiment: GH-RH radioreceptor binding assay, rat anterior pituitary membrane homogenates; conditions: for Ki: competition with [His1,125I-Tyr10,Nle27]hGH-RH(1–32)NH2; for R.A. (relative affinity compared to Standard antagonist): ratio of Ki values
T1 construct: from tissue; host or cells: anterior pituitary of male Sprague-Dawley rats, crude membrane homogenates
T1 sequence (Q02644 23-464): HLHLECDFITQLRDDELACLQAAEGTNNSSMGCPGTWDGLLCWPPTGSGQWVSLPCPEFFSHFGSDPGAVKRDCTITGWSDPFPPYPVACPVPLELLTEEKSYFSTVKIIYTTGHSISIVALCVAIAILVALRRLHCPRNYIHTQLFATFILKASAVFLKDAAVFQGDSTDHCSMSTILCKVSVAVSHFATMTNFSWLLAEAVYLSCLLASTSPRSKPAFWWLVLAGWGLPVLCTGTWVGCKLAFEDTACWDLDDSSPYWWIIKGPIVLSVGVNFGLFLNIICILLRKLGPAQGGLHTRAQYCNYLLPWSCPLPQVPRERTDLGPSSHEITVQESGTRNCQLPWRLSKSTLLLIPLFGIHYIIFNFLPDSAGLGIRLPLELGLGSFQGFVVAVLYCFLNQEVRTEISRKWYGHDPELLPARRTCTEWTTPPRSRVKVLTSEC
Method in brief: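 Antagonists competed with [His^1,^125I-Tyr^10,Nle^27]hGH-RH(1–32)NH2 for binding to crude anterior pituitary membranes from male Sprague-Dawley rats, with γ-counting of the pellet. Ki came from Munson–Rodbard analysis. Relative affinity is the Ki of the test antagonist divided by the Ki of standard [Ac-Tyr^1,D-Arg^2]hGH-RH(1–29)NH2.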

[3] = system: GH release stimulated by hGH-RH(1–29)NH2; experiment: In vivo inhibition of serum GH response in rats; set-up: species or system rat; conditions: for Inhibition of the GH release stimulated by hGH-RH(1–29)NH2 (in words): 80 μg/kg i.v., rats
Method in brief: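 Male Sprague-Dawley rats (200–250 g) under Nembutal received antagonist at 80 μg/kg i.v., then GH-RH(1–29)NH2 at 3 μg/kg after 5, 15, 30 or 60 min; controls received vehicle (5.5% mannitol). GH was measured by RIA before antagonist and 5 min after GH-RH, and inhibition was calculated as […].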

[4] = antagonist 80 μg/kg i.v. 5 min before GH-RH
[5] = antagonist 80 μg/kg i.v. 15 min before GH-RH
[6] = antagonist 80 μg/kg i.v. 15 min before GH-RH 3 μg/kg
[7] = antagonist 80 μg/kg i.v. 30 min before GH-RH
[8] = antagonist 80 μg/kg i.v. 30 min before GH-RH 3 μg/kg
[9] = antagonist 80 μg/kg i.v. 60 min before GH-RH
[10] = antagonist 80 μg/kg i.v. 60 min before GH-RH 3 μg/kg
[11] = rGH=GHblood1/GHblood0, antagonist 80 μg/kg i.v. 5 min before GH-RH 3 μg/kg

| SMILES | Inhibition of GH release (%) 30 min [1] [%] | Inhibition of GH release (%) 60 min [1] [%] | Inhibition of GH release (%) 90 min [1] [%] | Inhibition of GH release (%) 120 min [1] [%] | Inhibition of GH release (%) 0 min [1] [%] | Duration of complete inhibition of the GH-RH induced GH release ([1]; standard test conditions) [min] | Ki [2] [nM] | R.A. (relative affinity compared to Standard antagonist) [2] | Inhibition of the GH release stimulated by hGH-RH(1–29)NH2 (in words) [3] | Relative inhibition % of GH response [3, 4] [%] | Relative inhibition % of GH response [3, 5] [%] | GH response mean ± S.E.M. [3, 6] | Relative inhibition % of GH response [3, 7] [%] | GH response mean ± S.E.M. [3, 8] | Relative inhibition % of GH response [3, 9] [%] | GH response mean ± S.E.M. [3, 10] | GH response mean ± S.E.M. [3, 11] |
| --- | --- | --- | --- | --- | --- | --- | --- | --- | --- | --- | --- | --- | --- | --- | --- | --- | --- |
| CCCC[C@H](NC(=O)[C@@H](NC(=O)[C@H](CC(=O)O)NC(=O)[C@H](CCC(N)=O)NC(=O)[C@H](CC(C)C)NC(=O)[C@H](CC(C)C)NC(=O)[C@H](CCCCN)NC(=O)[C@H](CCCNC(=N)N)NC(=O)[C@H](C)NC(=O)[C@H](CO)NC(=O)[C@H](CC(C)C)NC(=O)[C@H](CCC(N)=O)NC(=O)[C@H](CC)NC(=O)[C@H](CC(C)C)NC(=O)[C@@H](NC(=O)[C@H](CCCCN)NC(=O)[C@H](CCCNC(=N)N)NC(=O)[C@H](Cc1ccc(O)cc1)NC(=O)[C@H](CCCNC(=N)N)NC(=O)[C@H](CC(N)=O)NC(=O)[C@@H](NC(=O)[C@H](Cc1ccc(Cl)cc1)NC(=O)[C@@H](NC(=O)[C@H](C)NC(=O)[C@H](CC(=O)O)NC(=O)[C@@H](CCCNC(=N)N)NC(=O)[C@H](Cc1ccc(O)cc1)NC(=O)Cc1ccccc1)[C@@H](C)CC)[C@@H](C)O)C(C)C)[C@@H](C)CC)C(=O)N[C@H](CCCNC(=N)N)C(=O)N[C@@H](CCCCNC(=N)N)C(N)=O [Peptide 1, [PhAc^0, D-Arg^2, Phe(pCl)^6, Arg^9, Abu^15, Nle^27, D-Arg^28, Har^29]hGH-RH(1–29)NH2] (PhAc-Y[dR]DAI[Phe(4-Cl)]TNRYRKVL[Abu]QLSARKLLQDI[Nle][dR][hArg]-NH2) | 100 | 100 | 100 | 94 | 100 | 90 | 0.044 | 67 | strong and long-lasting inhibition | 95 | 68 | 1.87 ± 0.13 | 64 | 1.97 ± 0.16 | −8 | 3.89 ± 0.65 | 1.13 ± 0.13 |
| CCCC[C@H](NC(=O)[C@@H](NC(=O)[C@H](CC(=O)O)NC(=O)[C@H](CCC(N)=O)NC(=O)[C@H](CC(C)C)NC(=O)[C@H](CC(C)C)NC(=O)[C@H](CCCCN)NC(=O)[C@H](CCCNC(=N)N)NC(=O)[C@H](C)NC(=O)[C@H](CO)NC(=O)[C@H](CC(C)C)NC(=O)[C@H](CCC(N)=O)NC(=O)[C@H](CC)NC(=O)[C@H](CC(C)C)NC(=O)[C@@H](NC(=O)[C@H](CCCCN)NC(=O)[C@H](CCCNC(=N)N)NC(=O)[C@H](Cc1ccc(OC)cc1)NC(=O)[C@H](CCCCNC(=N)N)NC(=O)[C@H](CC(N)=O)NC(=O)[C@@H](NC(=O)[C@H](Cc1ccc(Cl)cc1)NC(=O)[C@@H](NC(=O)[C@H](C)NC(=O)[C@H](CC(=O)O)NC(=O)[C@@H](CCCNC(=N)N)NC(=O)[C@H](Cc1ccc(O)cc1)NC(=O)Cc1ccccc1)[C@@H](C)CC)[C@@H](C)O)C(C)C)[C@@H](C)CC)C(=O)N[C@H](CCCNC(=N)N)C(=O)N[C@@H](CCCCNC(=N)N)C(N)=O [Peptide 3, [PhAc^0, D-Arg^2, Phe(pCl)^6, Har^9, Tyr(Me)^10, Abu^15, Nle^27, D-Arg^28, Har^29]hGH-RH(1–29)NH2] (PhAc-Y[dR]DAI[Phe(4-Cl)]TN[hArg]Y(Me)RKVL[Abu]QLSARKLLQDI[Nle][dR][hArg]-NH2) | 98 | 91 | 92 | 87 | 85 | – | 0.068 | 43 | strong and long-lasting inhibition | 68 | 61 | 3.63 ± 0.80 | 41 | 4.89 ± 0.95 | 34 | 5.36 ± 0.63 | 3.01 ± 0.41 |
